Results reported in publication PMC11392399, “The final walk with preptin” (PLOS ONE, 2024).
Each block holds one substance with its values, some of them ahead of it. No end group written: not given here.

Legend:
IR-A in IM-9 lymphocytes = assay: Competitive binding assay for IR-A with [125I]-monoiodotyrosyl-TyrA14-insulin; design: species or system human; conditions: tracer 125I-insulin, only at the concentrations > 10^-6M, n ≥ 3
Excerpt: (§1) We also tested whether non-labeled preptins can bind to any of receptors for IGF2 (i.e. IR, IGF1R and IGF2R) in competitive binding assays, employing ^125I-labeled human insulin, IGF1 or IGF2. To determine binding to the IGF1R, we used mouse fibroblasts transfected with human IGF1R and with deleted mouse IGF1R (R+39 cells), according to Hexnerova et al.. We used non-transfected 3T3 fibroblasts to determine binding to IGF2R, because these cells contain essentially only IGF2R [5] and we used human IM-9 lymphocytes to determine affinity for IR-A [31].
(§2) Binding affinities of ligands for IGF1R were determined with [^125I]-Iodotyrosyl-IGF1 (2,614 Ci/mmol) prepared in the IOCB radioisotope laboratory by a procedure described in Kertisova et al.. Binding affinities for IR-A were determined with [^125I]-monoiodotyrosyl-TyrA14-insulin (2,200 Ci/mmol), prepared as described by Asai et al.. […]
(§3) The dissociation constant (Kd) values were determined with GraphPad Prism 8, using a nonlinear regression method, a one-site fitting program and considering the potential depletion of free ligand. […] Relative binding affinities were calculated as (Kd of the native hormone/Kd of analog) × 100 (in %). The relative binding affinity S.D. values of analogs were calculated as S.D. = Kd of the native hormone/Kd of peptide ×100 × √[(S.D. native/Kd native)^2 + (S.D. analog/Kd analog)^2].

[1] = tested on: intracellular calcium in U-2 OS osteoblasts; assay: Changes in intracellular calcium, U-2 OS osteoblasts; format: cell-based, human; conditions: U-2 OS cells; 10^−4 M; Fluo-8 fluorescence, (Fmax−F0)/F0; one-way ANOVA
Procedure: (§4) The day before the experiment, U-2 OS, MC3T3-E1, MIN6 and cAMP-HEK cells were seeded 6 000 (for osteoblastic cell lines U-2 OS, MC3T3-E1), 10 000 (for cAMP-HEK cells) or 30 000 (MIN6) cells per well in a black 384-well format micro plate with transparent bottom (Cat.#: 142761, Nunc, Thermo Fisher Scientific, USA). On the next day, the cultivation media was exchanged for assay buffer, consisting of HBSS (Cat.#: H6648-500ML, Sigma-Aldrich, Merck, Germany), 20 mM HEPES (Cat.#: L0180-100, Biowest, France), 2.5 mM Probenecid (Cat.#: P8761, Sigma-Aldrich, Merck, Germany), adjusted for pH 7.4 and supplemented with 4.77 μM CalciFluor™ Fluo-8, AM (Cat.#: 1345980-40-6, Santa Cruz Biotechnology, USA). After 45 min incubation with assay buffer in 37°C and 5% CO2, the cells were incubated at RT in a dark place for another 15 minutes. After this time, preptin and its analogs were added by the Agilent Bravo Automated Liquid Handling Platform (Agilent Technologies, USA). The kinetics were measured by the Spark® multimode reader from Tecan (Tecan Group Ltd., Switzerland) for 10 min (approximately 45 cycles, excitation 485 nm, emission 535 nm, band width 10 nm). Before each kinetics, the background fluorescence (F0) was measured and the result was calculated as (Fmax−F0)/F0, where Fmax corresponds to the maximum response upon stimulation by the compounds. Each compound was tested in concentration 10^−4 M.

[2] = tested on: intracellular calcium in MIN6 pancreatic beta cells; assay: Changes in intracellular calcium, MIN6 cells; format: cell-based, mouse; conditions: 10^−4 M, Fluo-8 fluorescence, (Fmax−F0)/F0, one-way ANOVA
Procedure: as §4, with “Each compound was tested in concentration 10^−4 M.” left out

hBMSC-TERT = assay: Osteoblast differentiation of hBMSC-TERT, alkaline phosphatase (ALP) activity assay; format: cell-based, human; conditions: for ALP activity normalized to cell viability, compared to unstimulated cells: 100 ng/ml, 500 ng/ml and 1 ug/ml, day 7 of OB differentiation, changes not significant; for osteoblast differentiation of hBMSCs: summary in the conclusions
Procedure: hBMSC-TERT were plated at a density of 20 000 cells/cm^2 (Alizarin Red S staining) and 5 000 cells/well (ALP activity assay) in MEM medium (Gibco), supplemented with 10 % FBS (Gibco) and 1 % P/S (Gibco). One day after seeding, the medium was replaced with OB induction medium, composed of basal medium, supplemented with 10 mM B-glycerophosphate (Sigma-Aldrich), 10 nM dexamethasone (Sigma-Aldrich), 50 μg/mL vitamin C (Sigma-Aldrich), 10 nM vitamin D3 (Sigma-Aldrich) and treated with 100 ng/ml, 500 ng/ml and 1 ug/ml IGF2, IGF1, IGF2, preptin or vehicle (acetic acid) as a control. The medium was changed every other day for 7 days (ALP activity assay) or 10 days (Alizarin Red S staining).
ALP activity and cell viability assay were quantified at Day 7 of OB differentiation, in order to normalize the ALP activity data to the number of viable cells.
Cell viability assay was measured using a Cell Titer-Blue Assay Reagent (Promega) at fluorescence intensity (579Ex/584Em). ALP activity was detected by absorbance at 405 nm, using p-nitrophenyl phosphate (Sigma-Aldrich) as substrate.

[3] = tested on: human primary osteoblasts; conditions: 8 days, ref [17] Bosetti et al.; cited from earlier work
[4] = tested on: phosphorylation of Akt in MC3T3-E1 preosteoblasts; assay: Stimulation of phosphorylation of Akt, MC3T3-E1 preosteoblasts; format: cell-based, mouse; conditions: 10^-8M, 5 min at RT, Western blot, n = 4, one-way ANOVA
Procedure: For measuring activation of intracellular signaling pathways, 40 000 of MC3T3-E1, U-2 OS and 3T3-R- cells per well and 100 000 of MIN6 cells per well were seeded in a 24-well plate, two days before stimulation. Cells’ stimulations were done after overnight starvation in a clean culture medium without serum. Cells were stimulated using preptins and their analogs at 10^-8M concentration for 5 min at RT. Cells were washed with PBS and froze immediately. Samples for immunoblots were prepared in Sample lysis buffer (62,5 mM Tris/HCl, 2 % SDS (w/v), 10 % glycerol (v/v), 0,01 % Brom-phenol Blue (w/v), 0,1M DTT, 50mM NaF, 1mM Na3VO4, 0,5 % protease inhibitory complex (v/v), pH 6,8).
Western blots were similarly used to study signaling pathways activated by our preptins in all cell lines mentioned above. Proteins were routinely analyzed using immunoblotting. […] The data are expressed as the contribution of target phosphorylation relative to non-stimulated cells (MC3T3-E1, U-2 OS, 3T3-R- and MIN6). Mean ± S.D. (n = 4) values were calculated. The significance of the changes in stimulation of phosphorylation in relation to unstimulated cells was calculated, using the One-way-ANOVA comparing all preptins and their analogs versus control non-stimulated cells.

[5] = tested on: cAMP in U-2 OS osteoblasts; assay: Changes in cAMP levels (GloSensor), U-2 OS osteoblasts; format: cell-based, human; conditions: 10^−4 M, GloSensor luminescence, (Lmax−L0)/L0, forskolin positive control
Procedure: Intracellular cAMP concentration was measured using Promega’s Glosensor on osteoblasts U-2 OS, pancreatic β-cells MIN6 and control cAMP-HEK cells (with stable transfection of F22 plasmid as described above). U-2 OS cells were transfected with F22 plasmid (pGloSensor™-22F, Promega, USA, 6.1 μg of plasmid per 1 million cells) using X-tremeGENE (Sigma-Aldrich, Germany). The ratio of plasmid and transfection reagent was 1:3 (plasmid: X-tremeGENE, m/v). The MIN6 cells were transfected with F22 plasmid in the same concentration as U-2 OS using electroporation by the Invitrogen™ Neon™ Transfection System Instrument (Thermo Fisher Scientific, USA, transfection conditions: 1400 V, 20 ms, 1 pulse). […]
After 24 hours (U-2 OS and cAMP-HEK cells) or 48 hours, respectively (MIN6 cells), cultivation media was changed for assay buffer (HBSS buffer with 20 mM HEPES and 2% (v/v) (cAMP-HEK, U-2 OS cells) or 6% (v/v), respectively (MIN6 cells), GloSensor™ reagent stock solution). The plate was incubated in the dark for 1–2 hours at RT and luminescence was measured until a stable signal was observed (L0). […] The luminescence kinetics were measured by Spark® for 30 min. The result was calculated as (Lmax−L0)/L0, where Lmax corresponds to the maximum response upon stimulation by the compounds. […]

IGF2R = assay: Competitive binding assay for IGF2R with [125I]-monoiodotyrosyl-Tyr2-IGF2; design: species or system mouse; conditions: R- cells with IGF2R; tracer 125I-IGF2; n ≥ 3
Excerpt: as §1, §2, §3

human IGF1R = assay: Competitive binding assay for IGF1R with [125I]-Iodotyrosyl-IGF1; conditions: fibroblasts with IGF1R (R+39 cells); tracer 125I-IGF1; n ≥ 3
Excerpt: as §1, §2, §3

[6] = tested on: intracellular calcium in U-2 OS cells; conditions: previous paper, different method, ref [21]; cited from earlier work
Excerpt: It is well known that Ca^2+ regulates numerous physiological cellular processes as a second messenger. It plays a vital role in the regulation of cell proliferation, and its increased level is critical for secretagogue-induced insulin release in pancreatic beta cells. […] If preptin or its analogs were proficient insulin secretagogues or had any effect on bone cells, we would e ...

Substance: DVSTPPTVLPDNFPRYPVGKFFQYDTWKQSTQRL [peptide 1, native human preptin]
binding to IR-A (IR-A in IM-9 lymphocytes): weak binding

Substance: DVSTSQAVLPDDFPRYPVGZFFQYDTWRQSAGRL [peptide 15, Mouse preptin with Aib (Z) at position 20]
changes in intracellular calcium relative to non-stimulated cells [1]: significant increase in intracellular calcium levels

Substance: DVTTSQAVLPDDFPRY [peptide 17, Mouse preptin fragment]
changes in intracellular calcium relative to non-stimulated cells [2]: completely inhibited calcium secretion

Substance: FPRYPVGKFFQYNTW-NH2 [peptide 18, Mouse preptin fragment, amino acids 13–27, amidated C-end]
changes in intracellular calcium relative to non-stimulated cells [1]: significant increase in intracellular calcium levels

Substance: IGF2: insulin-like growth factor 2, comparator hormone
ALP activity normalized to cell viability, compared to unstimulated cells (hBMSC-TERT): signs of higher ALP activity
osteoblast differentiation of hBMSCs (hBMSC-TERT): neither preptin nor IGF2 significantly increased
change in ALP activity [3]: no significant effects

binding to IR-A (IR-A in IM-9 lymphocytes): weak binding
Substance: PVGKFFQYDTWKQSTQRL [peptide 3, Human preptin fragment]

Substance: TWKQSTQRL-NH2 [peptide 13, Human preptin fragment]
phosphorylation of Akt relative to non-stimulated cells [4]: Significantly lower phosphorylation of Akt
changes in cAMP levels relative to non-stimulated cells [5]: significant decrease of cAMP

Substance: WKQSTQRL-NH2 [peptide 12, Human preptin fragment]
phosphorylation of Akt relative to non-stimulated cells [4]: Significantly lower phosphorylation of Akt

Substance: preptin: 34-amino acid peptide derived from pro-IGF2; species or peptide number not stated at the place (DVSTPPTVLPDNFPRYPVGKFFQYDTWKQSTQRL; Preptin; UniProt P01344 93-126, looked up)
displacement of native ligand from IGF2R (IGF2R): did not displace native ligands even at the highest concentrations used
displacement of native ligand from IGF1R (human IGF1R): did not displace native ligands even at the highest concentrations used
ALP activity normalized to cell viability, compared to unstimulated cells (hBMSC-TERT): signs of higher ALP activity
osteoblast differentiation of hBMSCs (hBMSC-TERT): neither preptin nor IGF2 significantly increased
change in ALP activity [3]: no significant effects
changes in intracellular calcium levels [6]: able to induce changes in intracellular calcium levels
